This note sets out measurements from US20090062255A1, “TUMOR-TARGETING EVALUATION METHODOLOGY AND COMPOUNDS RELATED THERETO” (THALLION PHARMACEUTICALS INC., priority 2007, published 2009).

For data set [1], the system named is Acyl CoA-Cholesterol Acyltransferase (ACAT). Nature of the data set: ACAT enzyme assay. The class given is biochemical, rat. As to conditions: 10 μM compound, 1% DMSO. An excerpt:
Acyl CoA-Cholesterol Acyltransferase (ACAT) converts cholesterol to cholesteryl esters and is involved in the development of artherioscerosis.
(§1) The procedures used were based on known assays: ACAT (from rat; Ref: Largis et al (1989), J. Lipid. Res., vol 30, 681-689), COX-2 (human; Ref: Riendeau et al (1997), Can. J. Physiol. Pharmacol., vol 75, 1088-1095 and Warner et al (1999), Pro. Natl. Acad. Sci. USA, vol 96, 7563-7568), 5-LO (human; Ref: Carter et al (1991), J. Pharmacol. Exp. Ther., vol 256, no 3, 929-937, and Safayhi et al (2000), Planta Medica, vol 66, 110-113), PBR (from rat; Le Fur et al (1983), Life Sci. USA, vol 33, 449-457), CysLT1 (human; Martin et al (2001), Biochem. Pharmacol., vol 62, no 9, 1193-1200) and CBR (from rat; Damm et al (1978), Res. Comm. Chem. Pathol. Pharmacol., vol 22, 597-600 and Speth et al (1979), Life Sci., vol 24, 351-357).
(§2) Binding assays were done for each of Compounds 1-12 and 46 using ACAT, COX-2, 5-LO, PBR and CysLT1 enzymes. The procedures used are based on the respective references mentioned above and the conditions are summarized in Tables 16 (enzyme assays) and 17 (radioligand receptor assays).
(§3) Binding Assays were done at constant concentration of the compound, in 1% DMSO as vehicle, and are specified below each enzyme/receptor type in Table 18. The results are expressed in Table 18 as percentage inhibition. Significance was obtained when a result was ≧50% binding or inhibition (underlined).

The target in data set [2] is T1, Cyclooxygenase-2 (COX-2) (Homo sapiens, UniProt P35354).
T1 construct: host or cells: insect Sf21 cells
T1 sequence (P35354 18-604): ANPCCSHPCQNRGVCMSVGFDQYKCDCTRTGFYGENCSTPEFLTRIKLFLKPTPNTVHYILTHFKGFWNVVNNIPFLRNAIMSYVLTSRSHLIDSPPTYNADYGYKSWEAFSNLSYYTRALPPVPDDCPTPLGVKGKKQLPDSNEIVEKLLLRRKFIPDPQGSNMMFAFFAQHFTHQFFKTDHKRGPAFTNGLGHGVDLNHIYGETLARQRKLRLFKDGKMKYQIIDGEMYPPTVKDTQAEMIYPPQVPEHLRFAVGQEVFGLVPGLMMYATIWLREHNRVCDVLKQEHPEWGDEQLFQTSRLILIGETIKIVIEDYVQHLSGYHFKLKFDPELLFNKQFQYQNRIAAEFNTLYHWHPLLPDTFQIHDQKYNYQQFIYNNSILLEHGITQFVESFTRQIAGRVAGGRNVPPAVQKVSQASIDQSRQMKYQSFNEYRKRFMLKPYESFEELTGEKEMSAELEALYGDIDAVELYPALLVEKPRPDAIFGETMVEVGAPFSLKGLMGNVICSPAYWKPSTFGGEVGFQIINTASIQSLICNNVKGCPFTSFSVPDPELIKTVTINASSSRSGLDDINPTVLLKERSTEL
The experiment in a line: COX-2 enzyme assay. In kind it is biochemical. As to conditions: 4 μM compound, 1% DMSO; read-out: Percentage of inhibition or binding activity, COX-2 (4 μM).
Text: Cyclooxygenase-2 (COX-2) enzyme is made only in response to injury or infection. It produces prostaglandins involved in inflammation and the immune response. Elevated levels of COX-2 in the body have been linked to cancer.
as §1, §2, §3

Data set [3] deals with T2, Leukotriene, Cysteinyl (CysLT1) receptor (Homo sapiens, UniProt Q9Y271).
T2 construct: expressed in transfected cells; host or cells: CHO-K1 cells
T2 sequence (Q9Y271 1-337): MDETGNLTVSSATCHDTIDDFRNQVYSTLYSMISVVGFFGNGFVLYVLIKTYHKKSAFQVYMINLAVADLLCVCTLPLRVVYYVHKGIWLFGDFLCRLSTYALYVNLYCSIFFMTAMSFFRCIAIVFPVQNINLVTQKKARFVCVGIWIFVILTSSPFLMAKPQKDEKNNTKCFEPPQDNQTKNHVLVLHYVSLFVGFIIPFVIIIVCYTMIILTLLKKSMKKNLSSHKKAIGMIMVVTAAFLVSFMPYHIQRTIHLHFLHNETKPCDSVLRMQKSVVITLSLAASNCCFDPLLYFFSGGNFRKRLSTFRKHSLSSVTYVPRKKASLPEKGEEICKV
The experiment in a line: CysLT1 radioligand binding assay. The conditions noted are these: 4 μM compound, 1% DMSO; read-out: Percentage of inhibition or binding activity, CysLT1 (4 μM).
Text: Leukotriene, Cysteinyl (CysLT1) is involved in inflammation and CysLT1-selective antagonists are used as treatment for bronchial asthma.
as §1, §2, §3

Data set [4] concerns SRBC. The experiment in a line: Hemolysis of SRBC. In kind it is cell-based. The conditions noted are these: concentration necessary to achieve 50% hemolysis of SRBC.

Take `COc1cccc2c1Nc1c(O)cc(O)cc1N(C/C=C(\C)CC/C=C(\C)CCC=C(C)C)C2=O` [Compound 4, 10-farnesyl-6,8-dihydroxy-4-methoxy-5,10-dihydro-dibenzo[b,e][1,4]diazepin-11-one]: in data set [1], the “Percentage of inhibition or binding activity, ACAT (10 μM)” value is given as 65%. Moreover, the inhibition at 4 µM was 78% in data set [2] and 64% in data set [3]. For the same compound, the “Hemolysis (ED50 μg/mL)” value in data set [4] was over 64 µg/mL.
For `CC(C)=CCC/C(C)=C/CC/C(C)=C/CN1C(=O)c2cccc(O)c2N(C)c2c(O)cc(O)cc21` [Compound 2, 10-farnesyl-4,6,8-trihydroxy-5-methyl-5,10-dihydro-dibenzo[b,e][1,4]diazepin-11-one] the same measures were 51%, 92%, 75% and 5.12 µg/mL.
For `CC(C)CCCC(C)CCCC(C)CCN1C(=O)c2cccc(O)c2Nc2c(O)cc(O)cc21` (stereo not drawn) [Compound 46, 10-(3,7,11-trimethyldodecyl)-4,6,8-trihydroxy-5,10-dihydro-dibenzo[b,e][1,4]diazepin-11-one], in that order: 8%, 95%, 71% and 13.9 µg/mL.
For `COc1cc(O)cc2c1Nc1c(O)cccc1C(=O)N2C/C=C(\C)CC/C=C(\C)CCC=C(C)C` [Compound 5, 10-farnesyl-4,8-dihydroxy-6-methoxy-5,10-dihydro-dibenzo[b,e][1,4]diazepin-11-one], in that order: 60%, 63%, 72% and over 64 µg/mL.
With `CC(=O)Oc1cc(OC(C)=O)c2c(c1)N(CC=C(C)CCC=C(C)CCC=C(C)C)C(=O)c1cccc(OC(C)=O)c1N2` [Compound 12, 4,6,8-triacetoxy-10-farnesyl-5,10-dihydro-dibenzo[b,e][1,4]diazepin-11-one], in data set [1], the “Percentage of inhibition or binding activity, ACAT (10 μM)” value was 83%. The inhibition at 4 µM was found to be 30% in data set [2] and 33% in data set [3]. The “Hemolysis (ED50 μg/mL)” value in data set [4] was over 64 µg/mL.
For `CC(=O)Oc1cccc2c1Nc1c(OC(C)=O)cc(O)cc1N(CC=C(C)CCC=C(C)CCC=C(C)C)C2=O` [Compound 10, 4,6-diacetoxy-10-farnesyl-8-hydroxy-5,10-dihydro-dibenzo[b,e][1,4]diazepin-11-one] the same measures were 90%, 45%, 67% and over 64 µg/mL.
For `CC(=O)Oc1cc(O)c2c(c1)N(CC=C(C)CCC=C(C)CCC=C(C)C)C(=O)c1cccc(OC(C)=O)c1N2` [Compound 11, 4,8-diacetoxy-10-farnesyl-6-hydroxy-5,10-dihydro-dibenzo[b,e][1,4]diazepin-11-one] the same measures were 71%, 57%, 74% and 9.8 µg/mL.
For `COc1cc(OC)c2c(c1)N(C/C=C(\C)CC/C=C(\C)CCC=C(C)C)C(=O)c1cccc(O)c1N2` [Compound 6, 10-farnesyl-4-hydroxy-6,8-dimethoxy-5,10-dihydro-dibenzo[b,e][1,4]diazepin-11-one], in that order: 54%, 45%, 24% and over 64 µg/mL.
Consider `CC(=O)Oc1cc(OC(C)=O)c2c(c1)N(CC=C(C)CCC=C(C)CCC=C(C)C)C(=O)c1cccc(O)c1N2` [Compound 9, 6,8-diacetoxy-10-farnesyl-4-hydroxy-5,10-dihydro-dibenzo[b,e][1,4]diazepin-11-one], for which, in data set [1], the “Percentage of inhibition or binding activity, ACAT (10 μM)” value is given as 77%. For the same compound, the results for the inhibition at 4 µM in data set [2] and in data set [3] were 44% and 70%, respectively. Moreover, in data set [4], the “Hemolysis (ED50 μg/mL)” value is over 64 µg/mL.
On to `COc1cc(OC)c2c(c1)N(CC=C(C)CCC=C(C)CCC=C(C)C)C(=O)c1cccc(OC)c1N2` [Compound 8, 10-farnesyl-4,6,8-trimethoxy-5,10-dihydro-dibenzo[b,e][1,4]diazepin-11-one], for which the “Percentage of inhibition or binding activity, ACAT (10 μM)” value in data set [1] is on record as 40%. Further, the figures for the inhibition at 4 µM in data set [2] and in data set [3] were 19% and 13%, respectively.
Consider `CC(C)=CCC/C(C)=C/CC/C(C)=C/CN1C(=O)c2cccc(O)c2Nc2c(O)cc(O)cc21` [Compound 1, 10-farnesyl-4,6,8-trihydroxy-5,10-dihydrodibenzo[b,e][1,4]diazepin-11-one], for which the “Percentage of inhibition or binding activity, ACAT (10 μM)” value in data set [1] is 90%. Moreover, the inhibition at 4 µM in data set [2] was 96%; in data set [3], 92%. The “Hemolysis (ED50 μg/mL)” value in data set [4] was determined as 7.6 µg/mL.
As to `COc1cccc2c1Nc1c(OC)cc(O)cc1N(CC=C(C)CCC=C(C)CCC=C(C)C)C2=O` [Compound 7, 10-farnesyl-8-hydroxy-4,6-dimethoxy-5,10-dihydro-dibenzo[b,e][1,4]diazepin-11-one], in data set [1], the “Percentage of inhibition or binding activity, ACAT (10 μM)” value worked out at 95%. Also, the values for the inhibition at 4 µM in data set [2] and in data set [3] were 26% and 15%, respectively. Moreover, the “Hemolysis (ED50 μg/mL)” value in data set [4] was over 64 µg/mL.
For `CC(C)=CCC/C(C)=C/CC/C(C)=C/CN1C(=O)c2cccc(O)c2N(Cc2ccccc2)c2c(O)cc(O)cc21` [Compound 3, 5-benzyl-10-farnesyl-4,6,8-trihydroxy-5,10-dihydro-dibenzo[b,e][1,4]diazepin-11-one], in that order: 63%, 76%, 59% and over 64 µg/mL.

For orientation: inhibition means the share of the control response that was lost under treatment.
